We go through one compound from US5874283A, “Mammalian flap-specific endonuclease” (Harrington; John Joseph, priority 1995, dated 1999).

The target of assay [1] is T1, FEN-1 (flap endonuclease-1) purified from the nuclear fraction of mouse pre-B cell line 1-8 (Mus musculus, UniProt P39749). The note with it: replacement of MgCl2 with 5 mM EDTA.
Excerpt: (§1) FEN-1 was purified from the nuclear fraction of a mouse pre-B cell line. The chromatographic behavior of FEN-1 was monitored using Flap Substrate 1 in the standard FEN-1 endonuclease assay.
In assay [2] the target is T1, FEN-1 (flap endonuclease-1) purified from the nuclear fraction of mouse pre-B cell line 1-8. Kind of assay: biochemical. The conditions noted are these: 0.5 h, read-out: % Activity (exonuclease activity, FEN-1 activity versus divalent metal ion).
Description: All purification steps were carried out at 0°-4° C. Six liters of the murine pre-B cell line, 1-8 (Alt et al., 1984), were grown to 2×10^6 cells/ml in RPMI 1640, 10% FBS, 50 μM β-mercaptoethanol (βME), 100 μg/ml penicillin-streptomycin in spinner flasks. Eighteen liters of RPMI 1640 and 100 μg/ml penicillin-streptomycin were then added, and the cells were allowed to grow for an additional 24 h. The cells were harvested at a cell density of 1-1.5×10^6 cells/ml and spun at 1000 g in a Beckman JA-10 rotor for 5 min. The cell pellet was then washed with 500 ml of ice-cold PBS (5 mM NaPi pH 7.4, 137 mM NaCl, 3 mM KCl) supplemented with 1 g/l MgCl2 and pelleted as above. Nuclei were isolated by allowing the cell pellet to swell in 100 ml Buffer A (10 mM HEPES-KOH pH 7.8, 1.5 mM MgCl2, 10 mM KCl, 0.5 mM DTT) for 10 min on ice. The swollen cells were spun for 5 min at 2500 g in a Beckman J6B centrifuge, resuspended in 40 ml Buffer A and homogenized with 20 strokes of the B-pestle in a Dounce homogenizer. The nuclei were collected by centrifugation at 2500 g in a Beckman J6B for 5 min and lysed by adding 40 ml of Buffer B (20 mM EPES-KOH pH 7.8, 0.42M NaCl, 25% glycerol, 1.5 mM MgCl2, 0.2 mM EDTA, 0.5 mM DTT, 0.5 mM PMSF). Nuclear lysis was completed with 20 strokes of the B-pestle in a Dounce homogenizer. […]
The target is the same in assay [3]. Kind of assay: biochemical. The conditions noted are these: read-out: % Activity (endonuclease activity, FEN-1 activity versus divalent metal ion).
Excerpt: as §1

Like-named read-outs stand apart in the source and are kept apart here.

T1 sequence (P39749 whole entry): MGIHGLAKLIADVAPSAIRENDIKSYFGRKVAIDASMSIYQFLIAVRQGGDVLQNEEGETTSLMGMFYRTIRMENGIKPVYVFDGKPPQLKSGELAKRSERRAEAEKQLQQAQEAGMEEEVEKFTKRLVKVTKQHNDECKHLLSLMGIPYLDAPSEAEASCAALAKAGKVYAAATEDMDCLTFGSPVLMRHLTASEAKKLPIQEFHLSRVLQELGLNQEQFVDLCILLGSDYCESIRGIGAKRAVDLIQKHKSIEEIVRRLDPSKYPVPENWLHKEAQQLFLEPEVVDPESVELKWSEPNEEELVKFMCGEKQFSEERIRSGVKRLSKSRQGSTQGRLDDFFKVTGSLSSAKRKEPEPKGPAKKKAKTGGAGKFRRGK

With `O=C(O)CN(CCN(CC(=O)O)CC(=O)O)CC(=O)O` [EDTA], the “Inhibition of the flap cleavage reaction” value in assay [1] is “completely inhibited”. Further, the results for the activity at 5000 µM in assay [2] and in assay [3] were < 0.5% and < 1%, respectively.
